In US11446238B2, “Injectable dendrimer hydrogel nanoparticles” (Wayne State University, priority 2010, dated 2022):

Tested on: Red blood cell (RBC)
Assay: Red blood cell lysis (hemolysis)
Details: 1% Triton X-100, positive control

Triton X-100
hemolysis: 100%
